Tests used:
[1] = molecular target: T1, Recombinant human JAK1 catalytic domain (Homo sapiens, UniProt P23458); experiment: JAK1 inhibition assay; type: biochemical; conditions: semi-quantitative score
T1 construct: Recombinant human JAK1 catalytic domain (amino acids 850-1154; catalog number 08-144); purchased Carna Biosciences 08-144
Protocol: Recombinant human JAK1 catalytic domain (amino acids 850-1154; catalog number 08-144) was purchased from Carna Biosciences. 10 ng of JAK1 was incubated with 12.5 μg polyGT substrate (Sigma catalog number P0275) in kinase reaction buffer (15 mM Tris-HCl pH 7.5, 1 mM DTT, 0.01% Tween-20, 10 mM MgCl2, 2 μM non-radioactive ATP, 0.25 μCi 33P-gamma-ATP (GE Healthcare, catalog number AH9968) final concentrations) with or without 5 μL containing test compound or vehicle (DMSO, 1% final concentration), in a total volume of 25 μL, in a polypropylene 96-well plate (Greiner, V-bottom). After 45 min at 30° C., reactions were stopped by adding of 25 μL/well of 150 mM phosphoric acid. All of the terminated kinase reaction was transferred to prewashed (75 mM phosphoric acid) 96 well filter plates (Perkin Elmer catalog number 6005177) using a cell harvester (Perkin Elmer). Plates were washed 6 times with 300 μL per well of a 75 mM phosphoric acid solution and the bottom of the plates was sealed. 40 μL/well of Microscint-20 was added, the top of the plates was sealed and readout was performed using the Topcount (Perkin Elmer). Kinase activity was calculated by subtracting counts per minute (cpm) obtained in the presence of a positive control inhibitor (10 μM staurosporine) from cpm obtained in the presence of vehicle. The ability of a test compound to inhibit this activity was determined as: Percentage inhibition=((cpm determined for sample with test compound present−cpm determined for sample with positive control inhibitor)divided by(cpm determined in the presence of vehicle−cpm determined for sample with positive control inhibitor))*100%.
(§1) Dose dilution series were prepared for the compounds enabling the testing of dose-response effects in the JAK1 assay and the calculation of the IC50 for each compound. Each compound was routinely tested at concentration of 20 μM followed by a 1/3 serial dilution, 8 points (20 μM-6.67 μM-2.22 μM-740 nM-247 nM-82 nM-27 nM-9 nM) in a final concentration of 1% DMSO.

[2] = molecular target: T2, Recombinant human JAK3 catalytic domain (Homo sapiens, UniProt P52333); experiment: JAK3 inhibition assay; type: biochemical; conditions: semi-quantitative score
T2 construct: Recombinant human JAK3 catalytic domain (amino acids 781-1124; catalog number PV3855); purchased Invitrogen PV3855
T2 sequence (P52333 781-1124): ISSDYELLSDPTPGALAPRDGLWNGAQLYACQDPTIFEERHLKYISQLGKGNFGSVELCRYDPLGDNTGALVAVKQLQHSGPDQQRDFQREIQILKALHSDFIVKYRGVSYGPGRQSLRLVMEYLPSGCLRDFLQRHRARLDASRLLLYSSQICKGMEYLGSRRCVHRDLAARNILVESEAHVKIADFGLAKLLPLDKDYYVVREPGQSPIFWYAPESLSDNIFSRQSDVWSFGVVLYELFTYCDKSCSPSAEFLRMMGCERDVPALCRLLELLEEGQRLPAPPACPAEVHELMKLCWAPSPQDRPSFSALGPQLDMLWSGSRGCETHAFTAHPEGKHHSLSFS
Protocol: Recombinant human JAK3 catalytic domain (amino acids 781-1124; catalog number PV3855) was purchased from Invitrogen. 0.025 mU of JAK3 was incubated with 2.5 μg polyGT substrate (Sigma catalog number P0275) in kinase reaction buffer (25 mM Tris pH 7.5, 0.5 mM EGTA, 0.5 mM Na3VO4, 5 mM b-glycerolphosphate, 0.01% Triton X-100, 1 μM non-radioactive ATP, 0.25 μCi 33P-gamma-ATP (GE Healthcare, catalog number AH9968) final concentrations) with or without 5 μL containing test compound or vehicle (DMSO, 1% final concentration), in a total volume of 25 μL, in a polypropylene 96-well plate (Greiner, V-bottom). After 105 min at 30° C., reactions were stopped by adding of 25 μL/well of 150 mM phosphoric acid. All of the terminated kinase reaction was transferred to prewashed (75 mM phosphoric acid) 96 well filter plates (Perkin Elmer catalog number 6005177) using a cell harvester (Perkin Elmer). Plates were washed 6 times with 300 μL per well of a 75 mM phosphoric acid solution and the bottom of the plates was sealed. 40 μL/well of Microscint-20 was added, the top of the plates was sealed and readout was performed using the Topcount (Perkin Elmer). Kinase activity was calculated by subtracting counts per minute (cpm) obtained in the presence of a positive control inhibitor (10 μM staurosporine) from cpm obtained in the presence of vehicle. The ability of a test compound to inhibit this activity was determined as: Percentage inhibition=((cpm determined for sample with test compound present−cpm determined for sample with positive control inhibitor) divided by (cpm determined in the presence of vehicle−cpm determined for sample with positive control inhibitor))*100%.
as §1, with “JAK3” for “JAK1”

[3] = Caco2 permeability, bi-directional; type: in vitro ADME; conditions: human; for Papp A→B at 1 h, 10 μM: Caco-2, pH 7.4
Protocol: Bi-directional Caco-2 assays were performed as described below. Caco-2 cells were obtained from European Collection of Cell Cultures (ECACC, cat 86010202) and used after a 21 day cell culture in 24-well Transwell plates (Fisher TKT-545-020B).
2×10^5 cells/well were seeded in plating medium consisting of DMEM+GlutaMAXI+1% NEAA+10% FBS (FetalClone II)+1% Pen/Strep. The medium was changed every 2-3 days.
Test and reference compounds (propranolol and rhodamine 123 or vinblastine, all purchased from Sigma) were prepared in Hanks' Balanced Salt Solution containing 25 mM HEPES (pH 7.4) and added to either the apical (125 μL) or basolateral (600 μL) chambers of the Transwell plate assembly at a concentration of 10 μM with a final DMSO concentration of 0.25%.
50 μM Lucifer Yellow (Sigma) was added to the donor buffer in all wells to assess integrity of the cell layers by monitoring Lucifer Yellow permeation. As Lucifer Yellow (LY) cannot freely permeate lipophilic barriers, a high degree of LY transport indicates poor integrity of the cell layer.
After a 1 hour incubation at 37° C. while shaking at an orbital shaker at 150 rpm, 70 μL aliquots were taken from both apical (A) and basal (B) chambers and added to 100 μLl 50:50 acetonitrile:water solution containing analytical internal standard (0.5 μM carbamazepine) in a 96 well plate.
Lucifer yellow was measured with a Spectramax Gemini XS (Ex 426 nm and Em 538 nm) in a clean 96 well plate containing 150 μL of liquid from basolateral and apical side.
Concentrations of compound in the samples were measured by high performance liquid-chromatography/mass spectroscopy (LC-MS/MS).
The Efflux ratios, as an indication of active efflux from the apical cell surface, were calculated using the ratio of PappB>A/PappA>B.

TNF release = experiment: Septic shock model (LPS); type: in vivo, mice; conditions: for reduction in the TNF release: statistically significant
Protocol: Injection of lipopolysaccharide (LPS) induces a rapid release of soluble tumour necrosis factor (TNF-alpha) into the periphery. This model is used to analyse prospective blockers of TNF release in vivo.
Six BALB/cJ female mice (20 g) per group were treated at the intended dosing once, po. Thirty minutes later, LPS (15 μg/kg; E. Coli serotype 0111:B4) was injected ip. Ninety minutes later, mice were euthanized and blood was collected. Circulating TNF alpha levels were determined using commercially available ELISA kits. Dexamethasone (5 μg/kg) was used as a reference anti-inflammatory compound. Selected compounds are tested at one or multiple doses, e.g. 3 and/or 10 and/or 30 mg/kg, po.

T1 sequence (P23458 850-1154): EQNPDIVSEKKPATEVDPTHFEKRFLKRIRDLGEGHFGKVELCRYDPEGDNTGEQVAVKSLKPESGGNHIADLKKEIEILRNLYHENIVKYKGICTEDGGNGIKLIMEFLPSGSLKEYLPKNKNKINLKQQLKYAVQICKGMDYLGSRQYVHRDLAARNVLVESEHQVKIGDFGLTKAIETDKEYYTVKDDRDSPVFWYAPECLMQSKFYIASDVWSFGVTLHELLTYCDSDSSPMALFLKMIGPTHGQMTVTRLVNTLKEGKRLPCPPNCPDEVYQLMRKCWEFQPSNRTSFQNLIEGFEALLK

IC50 [1]	IC50 [2]	Papp A→B at 1 h, 10 μM [3]	SMILES	efflux ratio at 1 h, 10 μM ([3]; Caco-2, pH 7.4, PappB>A/PappA>B)	activity in the septic shock model (TNF release; 3 mg/kg)	reduction in the TNF release (TNF release; 3 mg/kg po)	reduction in the TNF release (TNF release; 10 mg/kg po)	activity in the septic shock model (TNF release; 30 mg/kg)
0.1 to 100 nM	> 501 nM	–	O=C(Nc1nc2cccc(-c3ccc(OCc4ccccc4)nc3)n2n1)C1CC1 [Compound 57, Cyclopropanecarboxylic acid [5-(6-benzyloxy-pyridin-3-yl)-[1,2,4]triazolo[1,5-a]pyridin-2-yl]-amide]	–	–	–	–	–
0.1 to 100 nM	> 501 nM	14.9 ×10⁻⁶ cm/s	O=C(Nc1nc2cccc(-c3ccc(NCc4ccccc4)cc3)n2n1)C1CC1 [Compound 72, N-(5-(4-(benzylamino)phenyl)-[1,2,4]triazolo[1,5-a]pyridin-2-yl)cyclopropanecarboxamide]	–	–	–	–	–
0.1 to 100 nM	–	–	CC(=O)Nc1ccc(COc2ccc(-c3cccc4nc(NC(=O)C5CC5)nn34)cc2)cc1 [Compound 92, N-(5-(4-(4-acetamidobenzyloxy)phenyl)-[1,2,4]triazolo[1,5-a]pyridin-2-yl)cyclopropanecarboxamide]	–	–	–	–	–
0.1 to 100 nM	101 to 500 nM	36.5 ×10⁻⁶ cm/s	O=C(Nc1nc2cccc(-c3ccc(OCc4cccnc4)cc3)n2n1)C1CC1 [Compound 36, N-(5-(4-(pyridin-3-ylmethoxy)phenyl)-[1,2,4]triazolo[1,5-a]pyridin-2-yl)cyclopropanecarboxamide]	–	–	–	–	active
0.1 to 100 nM	1 to 100 nM	–	O=C(Nc1nc2cccc(-c3ccc(OCc4ccccc4)cc3)n2n1)C1CC1 [Compound 12, N-(5-(4-(benzyloxy)phenyl)-[1,2,4]triazolo[1,5-a]pyridin-2-yl)cyclopropanecarboxamide]	–	–	–	–	–
0.1 to 100 nM	–	2 ×10⁻⁶ cm/s	O=C(Nc1nc2cccc(-c3ccc(OCc4ccc(C(F)(F)F)nc4)cc3)n2n1)C1CC1 [Compound 78, N-(5-(4-((6-(trifluoromethyl)pyridin-3-yl)methoxy)phenyl)-[1,2,4]triazolo[1,5-a]pyridin-2-yl)cyclopropanecarboxamide]	–	–	–	–	–

SMILES	IC50 [1]	IC50 [2]	Papp A→B at 1 h, 10 μM [3]	efflux ratio at 1 h, 10 μM ([3]; Caco-2, pH 7.4, PappB>A/PappA>B)	activity in the septic shock model (TNF release; 3 mg/kg)	reduction in the TNF release (TNF release; 3 mg/kg po)	reduction in the TNF release (TNF release; 10 mg/kg po)	activity in the septic shock model (TNF release; 30 mg/kg)
O=C(Nc1nc2cccc(-c3ccc(OCc4ccccn4)cc3)n2n1)C1CC1 [Compound 37, N-(5-(4-(pyridin-2-ylmethoxy)phenyl)-[1,2,4]triazolo[1,5-a]pyridin-2-yl)cyclopropanecarboxamide]	0.1 to 100 nM	–	23 ×10⁻⁶ cm/s	0.85	active	–	–	–
N#Cc1ccc(COc2ccc(-c3cccc4nc(NC(=O)C5CC5)nn34)cc2)cn1 [Compound 176, N-(5-(4-((6-cyanopyridin-3-yl)methoxy)phenyl)-[1,2,4]triazolo[1,5-a]pyridin-2-yl)cyclopropanecarboxamide]	0.1 to 100 nM	1 to 100 nM	10.6 ×10⁻⁶ cm/s	–	–	> 50%	> 50%	–
